The target of one assay is Galectin-1 (Homo sapiens (Human), UniProt P09382). Nature of the assay: Fluorescence anisotropy assay, compound as inhibitor of galectin / fluorescein tagged saccharide probe interaction. Format: binding. The method, then:
(§1) 100 nM albumin was included as a carrier to prevent protein loss at such low concentration of galectin.
On the technique in general: Polarisation of emitted light reports the rotation of a fluorescent probe.

A further assay concerns the target Galectin-3 (Homo sapiens (Human), UniProt P17931). Nature of the assay: Fluorescence anisotropy assay with high-affinity probe (SY), 50 nM galectin-3, 100 nM albumin. Type of assay: binding. The method, then: as §1
The target in another assay is galectins. The note with it: all galectins; reviewed by Leffler, 2001 and Leffler et al., 2004; cited from earlier work.

Usually Kd stands for a measure of binding affinity in units of concentration.

Chain of Galectin-3 (P17931 whole entry): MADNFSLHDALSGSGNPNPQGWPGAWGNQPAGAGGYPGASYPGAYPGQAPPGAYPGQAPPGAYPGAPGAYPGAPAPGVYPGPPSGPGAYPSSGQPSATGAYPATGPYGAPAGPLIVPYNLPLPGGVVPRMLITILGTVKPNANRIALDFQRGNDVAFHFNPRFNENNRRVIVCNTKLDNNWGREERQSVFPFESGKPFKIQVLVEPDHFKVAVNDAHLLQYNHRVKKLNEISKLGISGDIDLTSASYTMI
Chain of Galectin-1 (P09382 whole entry): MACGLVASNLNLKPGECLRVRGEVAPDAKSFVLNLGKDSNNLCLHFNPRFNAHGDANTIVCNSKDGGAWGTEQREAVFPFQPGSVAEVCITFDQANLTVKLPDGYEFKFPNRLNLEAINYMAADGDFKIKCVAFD

Turning to `CCCCNC(=O)c1cn([C@@H]2C(O)[C@H](SC3O[C@H](CO)C(O)C(OCc4cc5c(F)c(F)ccc5oc4=O)[C@H]3O)OC(CO)[C@@H]2O)nn1` (stereo partly drawn) [Example S8c, 3′-{4-[(Butylamino)carbonyl]-1H-1,2,3-triazol-1-yl}-3′deoxy-3-O-[(5,6-difluoro-2-oxo-3-chromenyl)methyl]-1,1′-sulfanediyl-di-β-D-galactopyranoside], the Kd on Galectin-1 (Experimental Section 1) stood at 1.2 µM; at Galectin-3 (Experimental Section 1), 0.072 µM.

Take `O=c1oc2ccc(F)c(F)c2cc1COC1C(O)[C@@H](CO)OC(S[C@@H]2OC(CO)[C@H](O)[C@H](n3cc(-c4cc(F)c(F)c(F)c4)nn3)C2O)[C@@H]1O` (stereo partly drawn) [Example S8b, 3′-Deoxy-3-O-[(5,6-difluoro-2-oxo-3-chromenyl)methyl]-3′-[4-(3,4,5-trifluorophenyl)-1H-1,2,3-triazol-1-yl]-1,1′-sulfanediyl-di-β-D-galactopyranoside]: the values for the Kd on Galectin-1 (Experimental Section 1) and on Galectin-3 (Experimental Section 1) were 0.48 µM and 0.002 µM, respectively. For `O=c1oc2ccc(F)c(F)c2cc1COC1C(O)[C@@H](CO)OC(S[C@@H]2OC(CO)[C@H](O)[C@H](n3cc(-c4cccc(F)c4)nn3)C2O)[C@@H]1O` (stereo partly drawn) [Example S8a, 3′-Deoxy-3-O-[(5,6-difluoro-2-oxo-3-chromenyl)methyl]-3′-[4-(3-fluorophenyl)-1H-1,2,3-triazol-1-yl]-1,1′-sulfanediyl-di-β-D-galactopyranoside], in that order: 0.32 µM and 0.028 µM. For `O=C(NC1C(O)C(CO)OC(SC2OC(CO)C(O)C(n3cc(-c4cccc(F)c4)nn3)C2O)C1O)c1c2ccccc2cc2ccccc12` [Example S20a, 3-(9-anthracenecarboxamide)-3,3′-Dideoxy-3-[4-(3-fluorophenyl)-1H-1,2,3-triazol-1-yl]-1,1′-sulfanediyl-di-β-D-galactopyranoside], in that order: 0.38 µM and 0.064 µM. In the case of `OCC1O[C@@H](SC2O[C@H](CO)C(O)C(n3cc(-c4ccc(F)c(F)c4)nn3)[C@H]2O)C(O)[C@@H](n2cc(-c3ccc(F)c(F)c3)nn2)[C@H]1O` (stereo partly drawn) [Example 3a, 3,3′-dideoxy-3,3′-di-[4-(3,4-difluorophenyl)-1H-1,2,3-triazol-1-yl]-1,1′-sulfanediyl-di-β-D-galactopyranoside], the results for the Kd at Galectin-1 (Experimental Section 2) and at Galectin-3 (Experimental Section 2) were 0.078 µM and 0.003 µM, respectively. For the molecule `COc1c(F)c(F)c(C(=O)NC2C(O)C(CO)OC(SC3OC(CO)C(O)C(n4cc(-c5cccc(F)c5)nn4)C3O)C2O)c(F)c1F` [Example S16, 3,3′-Dideoxy-3′-[4-(3-fluorophenyl)-1H-1,2,3-triazol-1-yl]-3-(4-methoxy-2,3,5,6-tetrafluoro-benzamido)-1′-sulfanediyl-di-β-D-galactopyranoside], the values for the Kd at Galectin-1 (Experimental Section 1) and on Galectin-3 (Experimental Section 1) were 0.09 µM and 0.007 µM, respectively. For `OCC1O[C@@H](SC2O[C@H](CO)C(O)C(n3cc(-c4ccccc4)nn3)[C@H]2O)C(O)[C@@H](n2cc(-c3cc(F)c(F)c(F)c3)nn2)[C@H]1O` (stereo partly drawn) [Example S21, 3,3′-Dideoxy-3-[4-(3,4,5-trifluorophenyl)-1H-1,2,3-triazol-1-yl]-3′-[4-phenyl-1H-1,2,3-triazol-1-yl]-1,1′-sulfanediyl-di-β-D-galactopyranoside], in that order: 0.066 µM and 0.003 µM.

For the molecule `OCC1O[C@@H](SC2O[C@H](CO)C(O)C(n3cc(-c4cc(F)c(F)c(F)c4)nn3)[C@H]2O)C(O)[C@@H](n2cc(-c3cc(F)c(F)c(F)c3)nn2)[C@H]1O` (stereo partly drawn) [Example 3b, 3,3′-bisdeoxy-3,3′-bis-[4-(3,4,5-trifluorophenyl)-1H-1,2,3-triazol-1-yl]-1,1′-sulfanediyl-di-β-D-galactopyranoside], the Kd worked out at 0.079 µM on Galectin-1 (Experimental Section 2) and 0.001 µM at Galectin-3 (Experimental Section 2). For `OCC1O[C@@H](SC2O[C@H](CO)C(O)C(n3cc(-c4cc(F)cc(F)c4)nn3)[C@H]2O)C(O)[C@@H](n2cc(-c3cc(F)cc(F)c3)nn2)[C@H]1O` (stereo partly drawn) [Example 3c, 3,3′-bisdeoxy-3,3′-bis-[4-(3,5-difluorophenyl)-1H-1,2,3-triazol-1-yl]-1,1′-sulfanediyldi-β-D-galactopyranoside] the same measures were 0.11 µM and 0.002 µM.

Regarding `O=C(NC1C(O)C(CO)OC(SC2OC(CO)C(O)C(n3cc(-c4cccc(F)c4)nn3)C2O)C1O)c1ccc2cc3ccccc3cc2c1` [Example S20b, 3-(2-anthracenecarboxamide)-3,3′-Dideoxy-3-[4-(3-fluorophenyl)-1H-1,2,3-triazol-1-yl]-1,1′-sulfanediyl-di-β-D-galactopyranoside], the figures for the Kd at Galectin-1 (Experimental Section 1) and on Galectin-3 (Experimental Section 1) were 0.49 µM and 0.14 µM, respectively. As for `OC[C@H]1O[C@@H](O[C@H]2[C@H](O)[C@@H](O)C(O)O[C@@H]2CO)[C@H](O)[C@@H](O)[C@H]1O` (some centres unmarked) [lactose], at galectins, the Kd was 500 to 1000 µM.

As to `CCCCNC(=O)c1cn(C2C(O)[C@@H](CO)OC(S[C@@H]3OC(CO)[C@H](O)[C@H](n4cc(-c5cc(F)c(F)c(F)c5)nn4)C3O)[C@@H]2O)nn1` (stereo partly drawn) [Example S11, 3-{4-[(Butylamino)carbonyl]-1H-1,2,3-triazol-1-yl}-3,3′-dideoxy-3′-[4-(3,4,5-trifluorophenyl)-1H-1,2,3-triazol-1-yl]-1,1′-sulfanediyl-di-β-D-galactopyranoside], the results for the Kd on Galectin-1 (Experimental Section 1) and on Galectin-3 (Experimental Section 1) were 0.077 µM and 0.001 µM, respectively.

The values above are taken from US10800804B2, “Hybrid galactoside inhibitor of galectins” (GALECTO BIOTECH AB, priority 2014, dated 2020).
